According to patent US20250320213A1, “Nitrogen-Containing Heterocyclic Compounds” (Pfizer Inc., priority 2024, published 2025):

The compounds below were run against T1, STAT6 (Homo sapiens, UniProt P42226) (assay: STAT6 Reporter Luciferase Assay (IL-13 stimulated HaCaT keratinocyte NanoLuc reporter cells)). Conditions: IL-13 stimulated HaCaT STAT6 NanoLuc reporter cells; read-out: Reporter EC50.
T1 construct: stably transfected HaCaT keratinocyte cell line, which expresses NanoLuc luciferase reporter gene under the transcriptional control of the STAT6 responsive promoter; endogenous in cells; host or cells: HaCaT keratinocyte reporter cell line (stably transfected with a NanoLuc reporter)
T1 sequence (P42226 1-847): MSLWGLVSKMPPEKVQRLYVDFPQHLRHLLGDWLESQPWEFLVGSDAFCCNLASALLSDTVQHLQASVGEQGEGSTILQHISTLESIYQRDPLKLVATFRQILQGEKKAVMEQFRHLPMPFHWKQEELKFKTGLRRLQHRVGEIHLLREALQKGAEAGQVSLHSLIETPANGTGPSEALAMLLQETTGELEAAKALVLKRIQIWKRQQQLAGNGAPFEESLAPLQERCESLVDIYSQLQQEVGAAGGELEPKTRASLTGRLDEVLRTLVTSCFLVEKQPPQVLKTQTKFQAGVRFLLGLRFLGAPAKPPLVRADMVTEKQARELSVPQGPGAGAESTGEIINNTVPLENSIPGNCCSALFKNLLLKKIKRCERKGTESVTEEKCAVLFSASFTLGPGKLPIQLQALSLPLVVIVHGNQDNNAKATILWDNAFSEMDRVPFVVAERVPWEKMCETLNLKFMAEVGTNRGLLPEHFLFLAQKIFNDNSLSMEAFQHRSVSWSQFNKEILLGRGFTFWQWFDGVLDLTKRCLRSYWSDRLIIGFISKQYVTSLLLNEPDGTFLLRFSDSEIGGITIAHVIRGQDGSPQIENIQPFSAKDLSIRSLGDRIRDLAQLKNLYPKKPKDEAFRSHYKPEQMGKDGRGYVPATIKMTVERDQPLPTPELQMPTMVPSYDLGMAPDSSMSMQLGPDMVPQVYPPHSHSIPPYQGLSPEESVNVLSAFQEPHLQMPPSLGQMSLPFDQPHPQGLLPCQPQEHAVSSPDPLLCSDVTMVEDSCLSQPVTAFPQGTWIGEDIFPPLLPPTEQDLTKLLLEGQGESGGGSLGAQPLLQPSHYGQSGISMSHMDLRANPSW
Assay type: cell-based
Procedure, shortened: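 Stably transfected HaCaT cells carrying NanoLuc under the STAT6-responsive IL-13Ra2 promoter were pre-treated with compound (11-point, 4-fold series, duplicate) for 2 h at 37 °C, then stimulated with 0.12 nM IL-13 for 4 h. Nano-Glo luminescence was read after 15 min.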

Structure (SMILES) | EC50 [nM]
CC(C)n1nc(C(=O)NCc2ccc(NC(=O)N(C)C)cc2)c2c1CCN(c1ccc(C(=O)N3CCn4cnnc4C3)cn1)C2 [Example 380, N-(4-(3,3-dimethylureido)benzyl)-1-isopropyl-5-(5-(5,6,7,8-tetrahydro-[1,2,4]triazolo[4,3-a]pyrazine-7-carbonyl)pyridin-2-yl)-4,5,6,7-tetrahydro-1H-pyrazolo[4,3-c]pyridine-3-carboxamide] | 538
Cc1c2c(nn1C)CCN(C(=O)c1ccc(N3CCc4c(c(C(=O)NCc5ccc(NC(=O)N(C)C)cc5)nn4C(C)C)C3)nc1)C2 [Example 381, 5-(5-(2,3-dimethyl-4,5,6,7-tetrahydro-2H-pyrazolo[4,3-c]pyridine-5-carbonyl)pyridin-2-yl)-N-(4-(3,3-dimethylureido)benzyl)-1-isopropyl-4,5,6,7-tetrahydro-1H-pyrazolo[4,3-c]pyridine-3-carboxamide] | 33
Cc1ncc2n1CCN(C(=O)c1ccc(N3CCc4c(c(C(=O)NCc5ccc(NC(=O)N(C)C)cc5)nn4C(C)C)C3)nc1)C2 [Example 382, N-(4-(3,3-dimethylureido)benzyl)-1-isopropyl-5-(5-(3-methyl-5,6,7,8-tetrahydroimidazo[1,5-a]pyrazine-7-carbonyl)pyridin-2-yl)-4,5,6,7-tetrahydro-1H-pyrazolo[4,3-c]pyridine-3-carboxamide] | 137
CC(C)n1nc(C(=O)NCc2ccc(NC(=O)N(C)C)cc2)c2c1CCN(c1ccc(C(=O)N3CCc4nocc4C3)cn1)C2 [Example 383, N-(4-(3,3-dimethylureido)benzyl)-1-isopropyl-5-(5-(4,5,6,7-tetrahydroisoxazolo[4,3-c]pyridine-5-carbonyl)pyridin-2-yl)-4,5,6,7-tetrahydro-1H-pyrazolo[4,3-c]pyridine-3-carboxamide] | 49
CC(C)n1nc(C(=O)NCc2ccc(NC(=O)N(C)C)cc2)c2c1CCN(c1ccc(C(=O)N3Cc4cn(C)nc4C3)cn1)C2 [Example 385, N-(4-(3,3-dimethylureido)benzyl)-1-isopropyl-5-(5-(2-methyl-2,4,5,6-tetrahydropyrrolo[3,4-c]pyrazole-5-carbonyl)pyridin-2-yl)-4,5,6,7-tetrahydro-1H-pyrazolo[4,3-c]pyridine-3-carboxamide] | 4
CC(C)n1nc(C(=O)NCc2ccc(NC(=O)N(C)C)cc2)c2c1CCN(c1ccc(C(=O)N3CCn4nc(C#N)cc4C3)cn1)C2 [Example 386, 5-(5-(2-cyano-4,5,6,7-tetrahydropyrazolo[1,5-a]pyrazine-5-carbonyl)pyridin-2-yl)-N-(4-(3,3-dimethylureido)benzyl)-1-isopropyl-4,5,6,7-tetrahydro-1H-pyrazolo[4,3-c]pyridine-3-carboxamide] | 56
COc1cccc2c1CN(C(=O)c1ccc(N3CCc4c(c(C(=O)NCc5ccc(NC(=O)N(C)C)cc5)nn4C(C)C)C3)nc1)C2 [Example 387, N-(4-(3,3-dimethylureido)benzyl)-1-isopropyl-5-(5-(4-methoxyisoindoline-2-carbonyl)pyridin-2-yl)-4,5,6,7-tetrahydro-1H-pyrazolo[4,3-c]pyridine-3-carboxamide] | 3
Cc1nn(C)c2c1CN(C(=O)c1ccc(N3CCc4c(c(C(=O)NCc5ccc(NC(=O)N(C)C)cc5)nn4C(C)C)C3)nc1)C2 [Example 401, 5-(5-(1,3-dimethyl-1,4,5,6-tetrahydropyrrolo[3,4-c]pyrazole-5-carbonyl)pyridin-2-yl)-N-(4-(3,3-dimethylureido)benzyl)-1-isopropyl-4,5,6,7-tetrahydro-1H-pyrazolo[4,3-c]pyridine-3-carboxamide] | 32
CC(C)n1nc(C(=O)NCc2ccc(NC(=O)N(C)C)cc2)c2c1CCN(c1ccc(C(=O)N3Cc4ncsc4C3)cn1)C2 [Example 402, 5-(5-(5,6-dihydro-4H-pyrrolo[3,4-d]thiazole-5-carbonyl)pyridin-2-yl)-N-(4-(3,3-dimethylureido)benzyl)-1-isopropyl-4,5,6,7-tetrahydro-1H-pyrazolo[4,3-c]pyridine-3-carboxamide] | 3
CC(C)n1nc(C(=O)NCc2ccc(NC(=O)N(C)C)cc2)c2c1CCN(c1ccc(C(=O)N3CCc4scnc4C3)cn1)C2 [Example 403, N-(4-(3,3-dimethylureido)benzyl)-1-isopropyl-5-(5-(4,5,6,7-tetrahydrothiazolo[4,5-c]pyridine-5-carbonyl)pyridin-2-yl)-4,5,6,7-tetrahydro-1H-pyrazolo[4,3-c]pyridine-3-carboxamide] | 12

Continued, values first:

EC50 [nM] | Structure (SMILES)
40 | Cc1cnc2n1CCN(C(=O)c1ccc(N3CCc4c(c(C(=O)NCc5ccc(NC(=O)N(C)C)cc5)nn4C(C)C)C3)nc1)C2 [Example 404, N-(4-(3,3-dimethylureido)benzyl)-1-isopropyl-5-(5-(3-methyl-5,6,7,8-tetrahydroimidazo[1,2-a]pyrazine-7-carbonyl)pyridin-2-yl)-4,5,6,7-tetrahydro-1H-pyrazolo[4,3-c]pyridine-3-carboxamide]
159 | CC(C)n1nc(C(=O)NCc2ccc(NC(=O)N(C)C)cc2)c2c1CCN(c1ccc(C(=O)N3CCc4ncn(C)c4C3)cn1)C2 [Example 405, N-(4-(3,3-dimethylureido)benzyl)-1-isopropyl-5-(5-(3-methyl-4,5,6,7-tetrahydro-3H-imidazo[4,5-c]pyridine-5-carbonyl)pyridin-2-yl)-4,5,6,7-tetrahydro-1H-pyrazolo[4,3-c]pyridine-3-carboxamide]
11 | Cc1nc2c(s1)CCN(C(=O)c1ccc(N3CCc4c(c(C(=O)NCc5ccc(NC(=O)N(C)C)cc5)nn4C(C)C)C3)nc1)C2 [Example 406, N-(4-(3,3-dimethylureido)benzyl)-1-isopropyl-5-(5-(2-methyl-4,5,6,7-tetrahydrothiazolo[4,5-c]pyridine-5-carbonyl)pyridin-2-yl)-4,5,6,7-tetrahydro-1H-pyrazolo[4,3-c]pyridine-3-carboxamide]
39 | CC(C)n1nc(C(=O)NCc2ccc(NC(=O)N(C)C)cc2)c2c1CCN(c1ccc(C(=O)N3Cc4cncnc4C3)cn1)C2 [Example 408, 5-(5-(6,7-dihydro-5H-pyrrolo[3,4-d]pyrimidine-6-carbonyl)pyridin-2-yl)-N-(4-(3,3-dimethylureido)benzyl)-1-isopropyl-4,5,6,7-tetrahydro-1H-pyrazolo[4,3-c]pyridine-3-carboxamide]
24 | Cc1nc2c(n1C)CCN(C(=O)c1ccc(N3CCc4c(c(C(=O)NCc5ccc(NC(=O)N(C)C)cc5)nn4C(C)C)C3)nc1)C2 [Example 409, 5-(5-(1,2-dimethyl-4,5,6,7-tetrahydro-1H-imidazo[4,5-c]pyridine-5-carbonyl)pyridin-2-yl)-N-(4-(3,3-dimethylureido)benzyl)-1-isopropyl-4,5,6,7-tetrahydro-1H-pyrazolo[4,3-c]pyridine-3-carboxamide]
15 | Cc1cnc2c(c1)CN(C(=O)c1ccc(N3CCc4c(c(C(=O)NCc5ccc(NC(=O)N(C)C)cc5)nn4C(C)C)C3)nc1)CC2 [Example 410, N-(4-(3,3-dimethylureido)benzyl)-1-isopropyl-5-(5-(3-methyl-5,6,7,8-tetrahydro-1,6-naphthyridine-6-carbonyl)pyridin-2-yl)-4,5,6,7-tetrahydro-1H-pyrazolo[4,3-c]pyridine-3-carboxamide]
8 | CC(C)n1nc(C(=O)NCc2ccc(NC(=O)N(C)C)cc2)c2c1CCN(c1ccc(C(=O)N3Cc4ccc(C#N)cc4C3)cn1)C2 [Example 411, 5-(5-(5-cyanoisoindoline-2-carbonyl)pyridin-2-yl)-N-(4-(3,3-dimethylureido)benzyl)-1-isopropyl-4,5,6,7-tetrahydro-1H-pyrazolo[4,3-c]pyridine-3-carboxamide]
396 | CC(C)n1nc(C(=O)NCc2ccc(NC(=O)N(C)C)cc2)c2c1CCN(c1ccc(C(=O)N3CCc4cnc(O)cc4C3)cn1)C2 [Example 412, N-(4-(3,3-dimethylureido)benzyl)-5-(5-(7-hydroxy-1,2,3,4-tetrahydro-2,6-naphthyridine-2-carbonyl)pyridin-2-yl)-1-isopropyl-4,5,6,7-tetrahydro-1H-pyrazolo[4,3-c]pyridine-3-carboxamide]
82 | Cc1nc2n(n1)CCN(C(=O)c1ccc(N3CCc4c(c(C(=O)NCc5ccc(NC(=O)N(C)C)cc5)nn4C(C)C)C3)nc1)C2 [Example 413, N-(4-(3,3-dimethylureido)benzyl)-1-isopropyl-5-(5-(2-methyl-5,6,7,8-tetrahydro-[1,2,4]triazolo[1,5-a]pyrazine-7-carbonyl)pyridin-2-yl)-4,5,6,7-tetrahydro-1H-pyrazolo[4,3-c]pyridine-3-carboxamide]
